Among the data in PubChem BioAssay (NCI) are TGI values, retold here.

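The compound was tested at five concentrations on cells cultured in 96-well plates, with a 48-hour exposure period. TGI: concentration producing complete growth inhibition.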

Test systems include DMS 114 small cell lung; KM20L2 colon; LXFL 529 NSCLC; M19-MEL melanoma; MDA-MB-435.
Common to all, as to experiment: NCI-60 cell line screen, 48 h

For `NNc1nnc(-c2ccccc2)nc1Cc1ccccc1`, the TGI was 17 µM with DMS 114 small cell lung, > 100 µM in the experiment with KM20L2 colon, 78.9 µM in the experiment with LXFL 529 NSCLC and > 100 µM with M19-MEL melanoma.

Turning to `CCOC(=O)NC(OCc1ccccc1)(C(=O)OC)C(F)(F)F` (stereo not given), in the experiment with MDA-MB-435, the TGI is > 100 µM.
